Columns and labels:
[1] = PK parameters in mouse (IV and PO); assay type: in vivo; details: for PK parameters (mouse): F: 10 mg/kg IV and 10 mg/kg PO; for clearance / half-life: male, Swiss Albino, plasma, IV arm, 10 mg/kg; for clearance: read-out: PK parameters (mouse): Cl; for half-life: read-out: PK parameters (mouse): t1/2
Protocol: Swiss Albino male mice or Sprague Dawley rats (TCGLS, India) were kept under a 12/12 h light/dark cycle, 22±2° C. temp, 50±20% RH with free access to food and water ad libitum. Mice were selected randomly/based on body weight/age and fasted for 4 h before dosing and until 2 h after dosing. Three mice were used per route of administration. […]
Blood samples were taken (mice 50 μL, rat 100 μL) at regular timepoints from the saphenous vein (conscious restrained animals) and collected into heparinized capillary tubes and transferred into 0.5 mL microcentrifuge tubes. Samples were processed by centrifugation at 1640 g for 10 min at +4° C. within 30 min of collection and stored at −20° C. until bioanalysis. All samples were mixed with ice-cold acetonitrile containing an internal standard, centrifuged at 4000 rpm for 15 min at 15° C. Supernatant was then half diluted in water and analysed by LCMS/MS analysis to determine analyte peak area/IS peak area (the ratio). Concentration (plasma) of the compounds of the invention was determined by reference to a calibration curve. Pharmacokinetic parameters (Cmax, Tmax, AUC, t1/2, CL, Vd, BA) were calculated using WinNonLin, using non-compartmental analysis (Phoenix, Version 6.3). The pharmacokinetic parameters for compounds shown in Table 2 support that compounds of the invention have pharmacokinetic properties associated with treatment of malaria via the oral route and that compounds have substantially longer half-lives than the reference compound.

[2] = Microsomal intrinsic clearance, human liver microsomes; assay type: in vitro ADME; details: human liver microsomes (pooled), pH 7.4, 45 min, NADPH
Protocol: (§1) The compounds of the invention (1 μM) were incubated in suspension with human (rat or mouse) liver microsomes pooled from multiple donors (>10) and samples taken at 5 time points over the course of a 45 min experiment and analysed by LC MS/MS. Microsomes (final protein concentration 0.5 mg/mL), 0.1 M phosphate buffer pH 7.4 and test compound (final substrate concentration 1 μM; final DMSO concentration 0.25%) were pre-incubated at 37° C. prior to the addition of NADPH (final concentration 1 mM) to initiate the reaction. A minus cofactor control incubation was included for each compound tested where 0.1 M phosphate buffer pH 7.4 is added instead of NADPH (minus NADPH). All incubations were performed in duplicate for each test compound and the results averaged. Each compound is incubated for 0, 5, 15, 30 and 45 min. The control (minus NADPH) was incubated for 45 min only. The reactions were stopped by transferring incubate into acetonitrile at the appropriate time points, in a 1:3 ratio.
(§2) The termination plates were centrifuged at 3,000 rpm for 20 min at 4° C. to precipitate the protein. Following protein precipitation, the sample supernatants were combined in cassettes of up to 4 compounds, internal standard added and samples analysed by LC-MS/MS. From a plot of ln peak area ratio (compound peak area/internal standard peak area) against time, the gradient of the line is determined. Subsequently, half-life (t½) and intrinsic clearance (CLint) are calculated using the equations below: Elimination rate constant (k)=(−gradient) Half-life (t1/2)(min)=0.693/k Intrinsic clearance (i.e. CLint)(μL/min/mg protein)=V×0.693/t1/2 where V=Incubation volume (μL)/Microsomal protein (mg)
(§3) Verapamil and dextromethorphan were included in the assay as controls and if the values for these compounds were not within the specified limits the results were rejected and the experiment repeated.

[3] = Microsomal intrinsic clearance, mouse liver microsomes; assay type: in vitro ADME; details: mouse liver microsomes (pooled), pH 7.4, 45 min, NADPH
Protocol: as §1, §2, §3

[4] = Hepatocyte intrinsic clearance, cryopreserved human hepatocytes; assay type: in vitro ADME; details: cryopreserved human hepatocytes in suspension (pooled), 60 min
Protocol: The compounds of the invention (3 μM) were incubated in suspension with cryopreserved human (rat or mouse) hepatocytes pooled from multiple donors (>10) and samples taken at 6 time points over the course of a 60 min experiment and analysed by LC MS/MS. Williams E media supplemented with 2 mM L-glutamine and 25 mM HEPES and test compound (final substrate concentration 3 μM; final DMSO concentration 0.25%) were pre-incubated at 37° C. prior to the addition of a suspension of cryopreserved hepatocytes (final cell density 0.5×10^6 viable cells/mL in Williams E media supplemented with 2 mM L glutamine and 25 mM HEPES) to initiate the reaction. The final incubation volume is 500 μL. The reactions are stopped by transferring aliquots of incubate into acetonitrile at the appropriate time points, in a 1:2 ratio. The termination plates are centrifuged at 3,000 rpm for 20 min at 4° C. to precipitate the protein. Following protein precipitation, the sample supernatants were combined in cassettes of up to 4 compounds, internal standard was added and analysed by LC MS/MS. From a plot of ln peak area ratio (compound peak area/internal standard peak area) against time, the gradient of the line was determined. Subsequently, half-life (t½) and intrinsic clearance (CLint) were calculated using the equations below: Elimination rate constant (k)=(−gradient) Half-life (t½) (min)=0.693/k Intrinsic clearance (i.e. CLint) (μL/min/million cells)=V×0.693/t1/2
where V=Incubation volume (μL)/Number of cells
Verapamil and umbelliferone were included in the assay as controls and if the values for these compounds are not within the specified limits the results were rejected and the experiment repeated.

[5] = Microsomal intrinsic clearance, rat liver microsomes; assay type: in vitro ADME; details: rat liver microsomes (pooled), pH 7.4, 45 min, NADPH
Protocol: as §1, §2, §3

Structure (SMILES)	PK parameters (mouse): F [1]	clearance [1] [mL/min/kg]	half-life [1] [h]	microsomal CLint at 1 μM [2] [µL/min/mg]	microsomal CLint at 1 μM [3] [µL/min/mg]	hepatocyte CLint at 3 μM [4] [µL/min/1e6 cells]	microsomal CLint at 1 μM [5] [µL/min/mg]
N#Cc1cc(NC(=O)[C@H]2c3ccccc3C(=O)N(CC(F)(F)F)[C@@H]2c2ccc(OC3CC3)nc2)ccc1F (single isomer, unassigned) [(1a)]	F = 79%	2.17	17	< 3	< 10	< 3	< 10
N#Cc1cc(NC(=O)[C@H]2c3ccccc3C(=O)N(CC(F)(F)F)[C@@H]2c2cnc(C(F)(F)F)nc2)ccc1F [(9a), (3S,4S)—N-(3-cyano-4-fluorophenyl)-1-oxo-2-(2,2,2-trifluoroethyl)-3-(2-(trifluoromethyl)pyrimidin-5-yl)-1,2,3,4-tetrahydroisoquinoline-4-carboxamide]	F = 92%	3.17	14	< 3	10.1	< 3	< 10
N#Cc1cc(NC(=O)[C@H]2c3ccccc3C(=O)N(CC(F)(F)F)[C@@H]2c2cccnc2)ccc1F [(+) SJ-733, 4-Isoquinolinecarboxamide, N-(3-cyano-4-fluorophenyl)-1,2,3,4-tetrahydro-1-oxo-3-(3-pyridinyl)-2-(2,2,2-trifluoroethyl)-, (3S,4S)-, reference compound]	F = 66%	70	1.1	140	37	11.4	< 6

Reference: patent US12509439B2, “Anti-malarial agents” (UNIVERSITY OF KENTUCKY RESEARCH FOUNDATION, priority 2020, dated 2025)
